Laboratory results as given in US20160361258A1 (priority 2015, published 2016).

How the values were obtained:
[1] = prior art U.S. Pat. No. 5,880,117; humans; cited from earlier work
in vivo = conditions: delivered sublingually or transmucosally
Experimental: 7-methoxyflavone is an aromatase inhibitor. Aromatase inhibitors work by inhibiting the action of the enzyme aromatase, which converts androgens into estrogens by a process called aromatization. 7-methoxyflavone is a compound having poor bioavailability of about 5% when ingested. According to an embodiment of the present invention, from about 5 mg to 50 mg, and preferably from about 20 mg to 30 mg of 7-methoxyflavone may be included in the formulations and dosage forms of the present invention, when delivered sublingually or transmucosally. […] According to an embodiment, the 7-methoxyflavone may be from a plant extract. 7-methoxyflavone has been found in Meliaceae and Rutaceae plants. According to an embodiment, the 7-methoxyflavone may therefore be from an extract containing at least 90% 7-methoxyflavone, standardized. Preferably, extract contains at least […] 7-methoxyflavone, standardized.
According to an embodiment of the present invention, from about 5 mg to 50 mg, and preferably from about 20 mg to 30 mg of 7,8-benzoflavone may be included in the formulations and dosage forms of the present invention, when delivered sublingually or transmucosally. According to an embodiment, the half-life of 7,8-benzoflavone is about 1-2 h when delivered sublingually or transmucosally.

[2] = in vivo; cited from earlier work

| SMILES | time of concentration peak after administration [1] | half-life (in vivo) | bioavailability [2] |
| --- | --- | --- | --- |
| C[C@]12CC[C@H]3[C@@H](CCC4=C[C@@H](O)CC[C@@]43C)[C@@H]1CC[C@@H]2O [4-androstene-3β, 17β-diol] | ≤ 90 min | – | – |
| O=c1cc(-c2ccccc2)oc2c1ccc1ccccc12 [7,8-benzoflavone, 2-phenyl-benzo(h)chromen-4-one] | – | 1 to 2 h | – |
| COc1ccc2c(=O)cc(-c3ccccc3)oc2c1 [7-methoxyflavone] | – | 8 to 12 h | about 5% |
